Measurements as given in US7943607B2, “Heteroaryl benzamide derivatives for use as GLK activators in the treatment of diabetes” (AstraZeneca AB, priority 2005, dated 2011).

Assays:
[1] = target: T1, recombinant human pancreatic GLK (Homo sapiens, UniProt P35557); experiment: biochemical
T1 sequence (P35557 1-465): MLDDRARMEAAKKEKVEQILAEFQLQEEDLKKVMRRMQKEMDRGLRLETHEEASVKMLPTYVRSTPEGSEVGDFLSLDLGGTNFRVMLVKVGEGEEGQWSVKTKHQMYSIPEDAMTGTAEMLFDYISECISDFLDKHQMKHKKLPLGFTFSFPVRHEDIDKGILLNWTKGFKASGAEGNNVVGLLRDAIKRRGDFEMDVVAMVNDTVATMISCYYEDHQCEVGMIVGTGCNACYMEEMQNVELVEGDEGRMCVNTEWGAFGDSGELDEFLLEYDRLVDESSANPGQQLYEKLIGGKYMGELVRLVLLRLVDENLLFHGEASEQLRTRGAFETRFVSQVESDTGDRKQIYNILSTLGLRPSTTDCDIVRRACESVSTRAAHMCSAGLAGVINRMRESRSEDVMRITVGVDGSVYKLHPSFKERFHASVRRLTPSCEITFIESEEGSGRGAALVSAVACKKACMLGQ

Zucker obese fa/fa rats = experiment: Oral Glucose Tolerance Test (OGTT); assay type: in vivo, rat; conditions: 10 mg/kg; given orally 120 minutes before oral glucose 2 g/kg; Zucker obese fa/fa rats on high fat diet
Protocol: Oral glucose tolerance tests were done on conscious Zucker obese fa/fa rats (age 12-13 weeks or older) fed a high fat diet (45% kcal fat) for at least two weeks prior to experimentation. The animals were fasted for 2 hours before use for experiments. A test compound or a vehicle was given orally 120 minutes before oral administration of a glucose solution at a dose of 2 g/kg body weight. Blood glucose levels were measured using a Accucheck glucometer from tail bled samples taken at different time points before and after administration of glucose (time course of […]). A time curve of the blood glucose levels was generated and the area-under-the-curve (AUC) for 120 minutes was calculated (the time of glucose administration being time zero). Percent reduction in glucose excursion was determined using the AUC in the vehicle-control group as zero percent reduction.

**Q.** How did the EC50 [1] turn out when `C[C@@H](CO)Oc1cc(Oc2cc3c(cc2F)S(=O)(=O)CCCO3)cc(C(=O)Nc2ccn(C)n2)c1` [Example 3, 3-[(7-Fluoro-5,5-dioxido-3,4-dihydro-2H-1,5-benzoxathiepin-8-yl)oxy]-5-[(1S)-2-hydroxy-1-methylethoxy]-N-(1-methyl-1H-pyrazol-3-yl)benzamide] was run?
**A.** 38 nM

**Q.** And the “OGTT activity (percent reduction in glucose excursion, AUC vs vehicle control)” value (Zucker obese fa/fa rats)?
**A.** 29%
